Assay results as given in the NIST ThermoML archive (doi:10.1016/j.jct.2005.03.019).
Where “and” joins values, the source holds several entries; their conditions need not be identical. Equal values may be shown once. ± gives the expanded uncertainty stated by the source.

Columns and labels:
[1] = 101 kPa, Liquid, Vibrating tube method
[2] = refractive index (Na D-line) (dimensionless); details: 101.33 kPa, Liquid, Standard Abbe refractometry
[3] = xn = mol fraction of the nth substance listed; details: 101 kPa, Liquid, Vibrating tube method

c1ccccc1 [benzene]
Details	mass density, 293.15 K [kg/m3]	mass density, 303.15 K [kg/m3]	mass density, 313.15 K [kg/m3]	mass density, 323.15 K [kg/m3]	mass density, 333.15 K [kg/m3]	mass density, 343.15 K [kg/m3]	mass density, 353.15 K [kg/m3]	refractive index, 298.15 K
[1]	877.8 ± 0.1	868 ± 0.1	857.9 ± 0.1	847.4 ± 0.1	836.6 ± 0.1	825.4 ± 0.1	813.9 ± 0.1	–
[2]	–	–	–	–	–	–	–	1.5009 ± 0.0004

CC1COC(=O)O1 (stereo not drawn) [4-methyl-1,3-dioxolan-2-one]
Details	mass density, 293.15 K [kg/m3]	mass density, 303.15 K [kg/m3]	mass density, 313.15 K	mass density, 323.15 K [kg/m3]	mass density, 333.15 K [kg/m3]	mass density, 343.15 K [kg/m3]	mass density, 353.15 K [kg/m3]	refractive index, 293.15 K
[1]	1200.3 ± 0.1	1180.6 ± 0.1	1161.3 ± 0.1 kg/m3 and 1161.2 ± 0.1 kg/m3	1142.4 ± 0.1	1124 ± 0.1	1106 ± 0.1	1088.4 ± 0.1	–
[2]	–	–	–	–	–	–	–	1.42095 ± 0.0004

CCc1ccccc1 [ethylbenzene]
Details	mass density, 293.15 K [kg/m3]	mass density, 303.15 K [kg/m3]	mass density, 313.15 K [kg/m3]	mass density, 323.15 K [kg/m3]	mass density, 333.15 K [kg/m3]	refractive index, 298.15 K
[1]	867.8 ± 0.2	858.6 ± 0.2	851.8 ± 0.2	847.6 ± 0.2	845.8 ± 0.2	–
[2]	–	–	–	–	–	1.4962 ± 0.0005

Cc1ccccc1 [toluene] + CC1COC(=O)O1
[3], x1 = 1
Details	mass density [kg/m3]
293.15 K	866.8 ± 0.1
303.15 K	857.5 ± 0.1
313.15 K	848.2 ± 0.1
323.15 K	838.9 ± 0.1
333.15 K	829.5 ± 0.1
343.15 K	820 ± 0.1
353.15 K	810.5 ± 0.1

CC1COC(=O)O1 (stereo not drawn) [4-methyl-1,3-dioxolan-2-one] + C=Cc1ccccc1
[3], x2 = 0
Details	mass density [kg/m3]
293.15 K	1200.3 ± 0.1
303.15 K	1180.6 ± 0.1
313.15 K	1161.2 ± 0.1
333.15 K	1124 ± 0.1
343.15 K	1106 ± 0.1
353.15 K	1088.4 ± 0.1

CCc1ccccc1 [ethylbenzene] + CC1COC(=O)O1
[3], x1 = 1
Details	mass density [kg/m3]
293.15 K	867.8 ± 0.2
303.15 K	858.6 ± 0.2
313.15 K	851.8 ± 0.2
323.15 K	847.6 ± 0.2
333.15 K	845.8 ± 0.2

c1ccccc1 [benzene] + CC1COC(=O)O1
[3], x1 = 1
Details	mass density [kg/m3]
293.15 K	877.8 ± 0.1
303.15 K	868 ± 0.1
313.15 K	857.9 ± 0.1
323.15 K	847.4 ± 0.1
333.15 K	836.6 ± 0.1
343.15 K	825.4 ± 0.1
353.15 K	813.9 ± 0.1

Cc1ccccc1 [toluene]
Details	mass density, 293.15 K [kg/m3]	mass density, 303.15 K [kg/m3]	mass density, 313.15 K [kg/m3]	mass density, 323.15 K [kg/m3]	mass density, 333.15 K [kg/m3]	mass density, 343.15 K [kg/m3]	mass density, 353.15 K [kg/m3]	refractive index, 298.15 K
[1]	866.8 ± 0.1	857.5 ± 0.1	848.2 ± 0.1	838.9 ± 0.1	829.5 ± 0.1	820 ± 0.1	810.5 ± 0.1	–
[2]	–	–	–	–	–	–	–	1.4965 ± 0.0004

C=Cc1ccccc1 [styrene]
Details	mass density, 293.15 K [kg/m3]	mass density, 303.15 K [kg/m3]	mass density, 313.15 K [kg/m3]	mass density, 323.15 K [kg/m3]	mass density, 333.15 K [kg/m3]	mass density, 343.15 K [kg/m3]	mass density, 353.15 K [kg/m3]	refractive index, 298.15 K
[1]	906 ± 4.5	896.4 ± 4.4	886.9 ± 4.3	877.3 ± 4.2	867.8 ± 4.1	858.2 ± 4	848.6 ± 4	–
[2]	–	–	–	–	–	–	–	1.546 ± 0.0011
